# Results: patent publication US20040158036A1, “Neuritogenic compound and uses thereof” (priority 2004, published 2004)
# “Also recorded” adds a separate entry of the source. Read-outs that look alike come from different tables or passages of the source. Ends that are not written are not given here.
# What was measured:
# explanted DRG [1] = experiment: Neurite outgrowth from explanted DRG cultures (Example 3); type: cell-based, C57/B16 mice; settings: for neurite outgrowth relative to non-treated cultures / INGAP peptide-stimulated neurite outgrowth after preincubation with anti-NGF antibody: INGAP peptide 1000 ng/mL; for neurite outgrowth relative to non-treated cultures: NGF 50 ng/mL, 17-β-estradiol 10 nM, 4 and 7 days; for overall length and density of neurite outgrowth vs non-treated DRG: 4 days in culture; for neurite outgrowth in combination with 17-β-estradiol vs either drug alone: INGAP peptide 1000 ng/mL + 17-β-estradiol 10 nM; for neurite outgrowth in combination with NGF vs INGAP peptide alone: INGAP peptide 1000 ng/mL + NGF 50 ng/mL; for INGAP peptide-stimulated neurite outgrowth after preincubation with anti-NGF antibody: cultures pre-incubated with anti-NGF antibody
# Procedure: (§1) DRG (L3, L4, L5) were dissected from wild-type C57/B16 mice <, and DRG explants were cultured in […] of Matrigel at 37° C. (5% CO2) for 24 h in phenol-red free RPMI 1640 media-free supplemented with 1% penicillin/streptomycin. Neurite outgrowth was followed for 7 days and was visualized with an OLYMPUS™ BX51 system microscope equipped with a Dage-MTI CCD300-RC camera coupled to a Powermate™ 8100 Pentium™III computer (NEC Corp.) with 128 MB RAM. Bright-field microscope images were stored in uncompressed tagged image file format (TIFF) at a resolution of 600 d.p.i. and analyzed using MCID-M5+5.1 image analysis software (Imaging Research Inc.) and SYSTAT 9 statistical software (SPSS Inc.).
# (§2) In all experiments, statistical significance was determined using one-way ANOVA and post-hoc Dunnett's test. The experimental group size was n=4-5, and differences were considered significant where P<0.05.
# [2] = system: dorsal route ganglia (DRG) explant cultures; experiment: Neurite outgrowth in DRG explant cultures (Example 1); type: cell-based, male C57BL/6 mice; settings: DRG explants
# Procedure: Using male C57BL/6 mice, dorsal route ganglia (DRG) explant cultures were established to examine the effect of the INGAP peptide of the present invention on neurite outgrowth (FIG. 1). DRG (L3, L4) were dissected from male C57BL/6 mice, and DRG explants were cultured in 14 uL of Matrigel in 2 ml of RPMI 1640 media+1% antibiotic.
# DRG explant cultures = experiment: MTT assay of DRG cell viability (Example 2); type: cell-based, Balb/C mice
# Procedure: Using DRG explant cultures, we examined the effects of the INGAP peptide of the present invention, as well as other agents, on DRG cell viability using the MTT assay (FIG. 2). DRG (L3, L4) were dissected from Balb/C mice, and DRG explants were cultured in 14 uL of Matrigel in 2 ml of RPMI 1640 media+1% antibiotic. After 48 hours, INGAP, β-estradiol, and/or FK506 were added to the explant cultures as indicated. MTT assay was performed 7 days after the addition of drugs. Data were analyzed using one-way ANOVA with post-hoc Tuckey” test. Differences were consider significant where p<0.05. (n=3-4 per treatment group).
# explanted DRG [3] = experiment: MTT assay, mitochondrial activity in explanted DRG (Example 3); type: cell-based, C57/B16 mice
# Procedure: as §1
# For cell viability assays, MTT was dissolved in phosphate buffered saline (1.9 mM NaH2PO4, 8.1 mM Na2HPO4, 154 mM NaCl) and applied to DRG explant cultures at a concentration of 1.2 mM for 2 h at (37° C., 5% CO2). Media were then aspirated, and each DRG explant was incubated in […] of DMSO for 1 h. […] of DMSO from each explant was transferred to a 96-well plate and absorbance at 595 nm was read on a Bio-Rad Benchmark plate reader.
# as §2
# DRG explants = experiment: [3H]thymidine incorporation in DRG explants (Example 3); type: cell-based, C57/B16 mice; settings: 4 days in culture; for [3H] thymidine incorporation relative to non-treated controls: 100 ng/mL
# Procedure: as §1
# For [3H]thymidine incorporation assays, serum-starved DRG ex-plants cultured in Matrigel were exposed to Ingap (100-1000 ng/mL) for 48 h. 1 p Ci/ml of [3H]thymidine was added to each DRG and kept for an additional 48 h, after which time the DRG were washed four times with ice-cold trichloroacetic acid (10%). Ganglia were lysed on ice in 100pL of tissue solubilizer (NCS-II, Amersham). Lysates were transferred to individual 4 mL scintillation counting vials, and 4 mL of liquid scintillation counting cocktail (Fischer SX25-5 ScintiSafe Plus 50%) was added to each lysate. Counting was performed on a Wallac 1410 liquid scintillation counter.
# as §2
# [4] = system: cells associated with the ductal epithelium; settings: normal, adult mouse; cited from earlier work
# [5] = system: cells associated with the ductal epithelium; settings: normal, adult hamster; cited from earlier work
molecule,measurement,setting,value
"C[C@]12CC[C@@H]3c4ccc(O)cc4CC[C@H]3[C@@H]1CC[C@@H]2O [17-β-estradiol, reference compound]",neurite outgrowth relative to non-treated cultures,explanted DRG [1],strong neurite outgrowth
"NGF: conventional neurotrophic agent, nerve growth factor [reference compound]",neurite outgrowth relative to non-treated cultures,explanted DRG [1],strong neurite outgrowth
GLHDPSHGTLPNGSG [15-amino-acid fragment (amino acids 104-118) of Islet Neogenesis Associated Protein],neurite-promoting effect compared with nerve growth factor (NGF),[2],comparable
same,neurite-promoting effect,[2]; FIG. 1,"effective, in a dose-dependent fashion, as a neurite-promoting agent"
same,MTT reduction (cell viability),"DRG explant cultures; doses 100 ng/mL to 1,500 ng/mL, MTT 7 days after addition of drugs",tremendous increase in MTT reduction
same,dose of maximal effect on MTT reduction,"DRG explant cultures; no significant change with 1000 or 1,500 ng/mL",500 ng/mL
same,neurite outgrowth vs non-treated DRG,"explanted DRG [1]; 100 ng/mL, any time point examined",No effects
same,neurite outgrowth vs non-treated DRG,"explanted DRG [1]; 100 ng/mL, any time point examined, listed as INGAP",did not have a significant effect
same,overall length and density of neurite outgrowth vs non-treated DRG,"explanted DRG [1]; 500 ng/mL, listed as INGAP",significant enhancement
same,overall length and density of neurite outgrowth vs non-treated DRG,explanted DRG [1]; 500 ng/mL,Significant effects
same,neurite outgrowth vs non-treated DRG,"explanted DRG [1]; 1000 ng/mL, 7 days in culture",continued to significantly enhance neurite outgrowth
same,overall length and density of neurite outgrowth vs non-treated DRG,explanted DRG [1]; 1000 ng/mL,Significant effects
same,overall length and density of neurite outgrowth vs non-treated DRG,"explanted DRG [1]; 1000 ng/mL, listed as INGAP",significant enhancement
same,neurite outgrowth vs non-treated DRG,"explanted DRG [1]; 24 h, regardless of the drug concentration",no significant differences
same,optimal dose for neurite outgrowth,explanted DRG [1]; DRG explants,1000 ng/mL
same,neurite outgrowth in combination with 17-β-estradiol vs either drug alone,explanted DRG [1],No significant enhancement
same,neurite outgrowth in combination with 17-β-estradiol vs either drug alone,explanted DRG [1]; listed as INGAP,not significantly different
same,neurite outgrowth in combination with NGF vs INGAP peptide alone,explanted DRG [1],enhances neurite outgrowth
same,neurite outgrowth in combination with NGF vs INGAP peptide alone,explanted DRG [1]; listed as INGAP,Enhanced effects on neurite outgrowth
same,neurite outgrowth relative to non-treated cultures,explanted DRG [1],"strong neurite outgrowth; also recorded: stimulates neurite outgrowth from the DRG explants, to an extent similar to that of the prototypical growth factor"
same,neurite outgrowth relative to non-treated cultures,explanted DRG [1]; listed as INGAP,stimulates neurite outgrowth to an extent similar to that of NGF
same,INGAP peptide-stimulated neurite outgrowth after preincubation with anti-NGF antibody,explanted DRG [1],marked reduction
same,INGAP peptide-stimulated neurite outgrowth after preincubation with anti-NGF antibody,explanted DRG [1]; listed as INGAP,strong reduction
same,mitochondrial activity (MTT reduction) vs non-treated controls,"explanted DRG [3]; 1000 ng/mL, 4 days in culture",significant increase in mitochondrial activity
same,mitochondrial activity (MTT reduction) vs non-treated controls,"explanted DRG [3]; 1000 ng/mL, 4 days in culture, listed as INGAP",significantly larger MTT reduction
same,mitochondrial activity (MTT reduction) vs non-treated controls,"explanted DRG [3]; 100, 500, 1000 ng/mL, 24 h in culture",no significant effects
same,mitochondrial activity (MTT reduction) vs non-treated controls,"explanted DRG [3]; 100, 500, 1000 ng/mL, 24 h in culture, listed as INGAP",no significant effect
same,mitochondrial activity (MTT reduction) vs non-treated controls,"explanted DRG [3]; 500 and 1000 ng/mL, 7 days in culture, P>0.05",trend toward enhanced cell viability
same,[3H] thymidine incorporation relative to non-treated controls,DRG explants,no significant effects
same,[3H] thymidine incorporation relative to non-treated controls,DRG explants; listed as INGAP,no significant effect
same,increase in [3H] thymidine incorporation relative to non-treated controls,DRG explants; 500 ng/mL,3 fold
same,"islet-cell neogenesis, new islet formation",[4],potent inducer of islet-cell neogenesis
same,"islet-cell neogenesis, new islet formation",[5],potent inducer of islet-cell neogenesis
